According to patent US20250145589A1, “PYRIDINE DERIVATIVE AND USE THEREOF” (SICHUAN HUIYU PHARMACEUTICAL CO., LTD., priority 2021, published 2025):
pIC50: −log10 of the molar value. Like-named read-outs stand apart in the source and are kept apart here.

Tests used:
PI3Kα = PI3Kα (Homo sapiens (Human), UniProt P42336); experiment: Inhibition of PI3Kα efficacy assay (ADP-Glo kinase assay); format: biochemical; settings: read-out: PI3Kα inhibitory activity (IC50)
Description: Inhibition of PI3Kα Efficacy assay The ADP-Glo™ kinase assay was used to assess the inhibition of PI3Kα with our compounds. The utilized proteins and assay reagents were obtained from the ADP-Glo™ Kinase Assay Kit (Promega). Initially, a 2 mM stock solution of the test compound (dissolved in DMSO) was serially diluted in five-fold concentrations using DMSO to obtain eight working solutions 1 (200′). […] Subsequently, 2 μL of 2.5×PI and ATP solution mixture were added to each well, mixed, and incubated at RT for 60 minutes. Then, 5 μL of ADP-Glo (containing 10 mM MgCl2) reagent was added to each well, mixed, and incubated at RT for 40 minutes. Finally, 10 μL of the Kinase Detection Reagent was added to each well, mixed, and incubated at RT for 40 minutes. […] Data were analyzed using GraphPad Prism with log(inhibitor) vs. response—Variable Slope(four parameters) fitting calculations for […]. (Note: The negative control refers to the group without inhibitor, and the blank control refers to the group without enzyme.) The data were presented in Tables 1 to 4.

[1] = tested on: NCI-H358 cells (KRAS G12C mutant); experiment: NCI-H358 cell proliferation inhibition (CellTiter-Glo); format: cell-based; settings: Homo sapiens, NCI-H358, 72 h; H358 cells (G12C mutation), 3 days, Table 6; read-out: NCI-H358 (IC50)
Description: The CellTiter-Glo®, assay was used to detect the number of viable cells, in order to evaluate the anti-proliferation efficacy of compounds. […] The compounds were serially diluted 5-fold in DMSO to obtain 8 concentrations, and then further diluted with RPMI-640 (10% FBS) cell culture medium to obtain the working solutions (5′), 20 μL of each working solution was added to the cell culture supernatant in each well, and the plate was further incubated for 3 days at 37° C. with 5% CO2. The plate was then equilibrated with CellTiter-Glo® reagent at room temperature (25° C.) for 10-30 minutes. After aspirating 50 μL of the medium, 50 μL of CellTiter-Glo® reagent was added. The cells were thoroughly mixed with the CellTiter-Glo® reagent using a microplate shaker for 2 minutes, and then incubated at room temperature for 10 minutes. The 96-well plate was placed in a multi-mode microplate reader to record the luminescence values (RLU). The inhibition rate was calculated through the following equation: [formula] Data were analyzed using GraphPad Prism for IC50 values (Note: The negative control refers to the group without inhibitor).

PI3Kδ = PI3Kδ (Homo sapiens (Human), UniProt O00329); experiment: Inhibition of PI3Kδ efficacy assay (ADP-Glo kinase assay); format: biochemical; settings: read-out: PI3Kδ inhibitory activity (IC50)
Chain of PI3Kδ (O00329 whole entry): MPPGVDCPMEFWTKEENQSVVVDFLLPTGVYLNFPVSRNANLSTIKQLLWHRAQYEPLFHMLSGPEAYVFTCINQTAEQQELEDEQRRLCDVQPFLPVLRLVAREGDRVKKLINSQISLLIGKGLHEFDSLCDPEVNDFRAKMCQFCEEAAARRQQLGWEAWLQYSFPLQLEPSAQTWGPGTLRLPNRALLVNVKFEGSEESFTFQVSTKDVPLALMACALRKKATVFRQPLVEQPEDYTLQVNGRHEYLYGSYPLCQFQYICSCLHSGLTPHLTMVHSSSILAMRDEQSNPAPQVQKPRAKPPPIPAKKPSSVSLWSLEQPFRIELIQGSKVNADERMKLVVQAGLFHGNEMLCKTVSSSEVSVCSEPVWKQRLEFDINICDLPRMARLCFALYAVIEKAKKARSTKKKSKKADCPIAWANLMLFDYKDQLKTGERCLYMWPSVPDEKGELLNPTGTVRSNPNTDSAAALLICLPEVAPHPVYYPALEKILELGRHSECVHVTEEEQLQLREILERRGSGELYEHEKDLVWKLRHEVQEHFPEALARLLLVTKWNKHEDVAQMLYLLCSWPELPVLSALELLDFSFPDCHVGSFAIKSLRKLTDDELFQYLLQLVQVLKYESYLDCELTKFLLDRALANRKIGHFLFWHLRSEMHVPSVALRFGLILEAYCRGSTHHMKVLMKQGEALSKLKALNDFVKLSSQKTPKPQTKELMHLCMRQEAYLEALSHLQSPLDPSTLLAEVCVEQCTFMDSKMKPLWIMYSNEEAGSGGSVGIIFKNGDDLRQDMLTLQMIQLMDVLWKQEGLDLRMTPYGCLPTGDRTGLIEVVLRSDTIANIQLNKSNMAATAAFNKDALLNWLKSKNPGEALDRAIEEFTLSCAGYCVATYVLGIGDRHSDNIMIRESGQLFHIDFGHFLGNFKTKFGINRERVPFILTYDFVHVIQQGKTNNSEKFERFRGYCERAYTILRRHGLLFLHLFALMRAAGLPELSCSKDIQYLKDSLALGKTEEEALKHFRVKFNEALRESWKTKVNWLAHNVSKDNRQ
Chain of PI3Kδ (P27986 whole entry partner): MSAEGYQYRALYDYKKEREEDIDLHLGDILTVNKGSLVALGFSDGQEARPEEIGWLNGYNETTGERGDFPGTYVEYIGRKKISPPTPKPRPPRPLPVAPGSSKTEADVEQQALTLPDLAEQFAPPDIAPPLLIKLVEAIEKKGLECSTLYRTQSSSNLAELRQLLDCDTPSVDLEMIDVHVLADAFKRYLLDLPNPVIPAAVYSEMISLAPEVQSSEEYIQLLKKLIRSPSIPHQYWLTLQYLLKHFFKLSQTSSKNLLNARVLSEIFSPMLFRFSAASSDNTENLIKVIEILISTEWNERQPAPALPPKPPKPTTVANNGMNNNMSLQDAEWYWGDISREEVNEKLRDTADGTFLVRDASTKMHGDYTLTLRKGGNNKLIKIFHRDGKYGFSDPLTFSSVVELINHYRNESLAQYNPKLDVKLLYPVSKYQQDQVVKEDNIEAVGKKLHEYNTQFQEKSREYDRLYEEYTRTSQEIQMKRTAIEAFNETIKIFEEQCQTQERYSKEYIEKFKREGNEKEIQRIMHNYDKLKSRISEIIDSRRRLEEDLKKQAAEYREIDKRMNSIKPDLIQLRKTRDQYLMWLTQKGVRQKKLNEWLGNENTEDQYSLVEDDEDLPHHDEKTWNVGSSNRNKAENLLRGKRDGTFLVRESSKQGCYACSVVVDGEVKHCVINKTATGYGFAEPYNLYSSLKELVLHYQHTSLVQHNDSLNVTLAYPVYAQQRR
Description: Test Example 2: Inhibition of PI3Kδ Efficacy assay The ADP-Glo™ kinase assay was used to assess the inhibition of PI3Kδ with our compounds. The utilized proteins and assay reagents were obtained from the ADP-Glo™ Kinase Assay Kit (Promega). Initially, a 2 mM stock solution of the test compound (dissolved in DMSO) was serially diluted in five-fold concentrations using DMSO to obtain eight working solutions 1 (200×) Subsequently, each of the eight working solutions 1 was further diluted in a 20-fold gradient by adding 5 μL into 95 μL of ddH2O, resulting in eight working solutions 2 (10×). […] Subsequently, 2 μL of 2.5×PI and ATP solution mixture were added to each well, mixed, and incubated at RT for 60 minutes. Then, 5 μL of ADP-Glo (containing 10 mM MgCl2) reagent was added to each well, mixed, and incubated at RT for 40 minutes. Finally, 10 μL of the Kinase Detection Reagent was added to each well, mixed, and incubated at RT for 40 minutes. Luminescence values were recorded using a multi-mode microplate reader with luminescence channel settings, and the inhibitory rate was calculated using the following formula: [formula] Data were analyzed using GraphPad Prism with log(inhibitor) vs. response—Variable Slope(four parameters) fitting calculations for IC50 values.

Chain of PI3Kα (P42336 whole entry): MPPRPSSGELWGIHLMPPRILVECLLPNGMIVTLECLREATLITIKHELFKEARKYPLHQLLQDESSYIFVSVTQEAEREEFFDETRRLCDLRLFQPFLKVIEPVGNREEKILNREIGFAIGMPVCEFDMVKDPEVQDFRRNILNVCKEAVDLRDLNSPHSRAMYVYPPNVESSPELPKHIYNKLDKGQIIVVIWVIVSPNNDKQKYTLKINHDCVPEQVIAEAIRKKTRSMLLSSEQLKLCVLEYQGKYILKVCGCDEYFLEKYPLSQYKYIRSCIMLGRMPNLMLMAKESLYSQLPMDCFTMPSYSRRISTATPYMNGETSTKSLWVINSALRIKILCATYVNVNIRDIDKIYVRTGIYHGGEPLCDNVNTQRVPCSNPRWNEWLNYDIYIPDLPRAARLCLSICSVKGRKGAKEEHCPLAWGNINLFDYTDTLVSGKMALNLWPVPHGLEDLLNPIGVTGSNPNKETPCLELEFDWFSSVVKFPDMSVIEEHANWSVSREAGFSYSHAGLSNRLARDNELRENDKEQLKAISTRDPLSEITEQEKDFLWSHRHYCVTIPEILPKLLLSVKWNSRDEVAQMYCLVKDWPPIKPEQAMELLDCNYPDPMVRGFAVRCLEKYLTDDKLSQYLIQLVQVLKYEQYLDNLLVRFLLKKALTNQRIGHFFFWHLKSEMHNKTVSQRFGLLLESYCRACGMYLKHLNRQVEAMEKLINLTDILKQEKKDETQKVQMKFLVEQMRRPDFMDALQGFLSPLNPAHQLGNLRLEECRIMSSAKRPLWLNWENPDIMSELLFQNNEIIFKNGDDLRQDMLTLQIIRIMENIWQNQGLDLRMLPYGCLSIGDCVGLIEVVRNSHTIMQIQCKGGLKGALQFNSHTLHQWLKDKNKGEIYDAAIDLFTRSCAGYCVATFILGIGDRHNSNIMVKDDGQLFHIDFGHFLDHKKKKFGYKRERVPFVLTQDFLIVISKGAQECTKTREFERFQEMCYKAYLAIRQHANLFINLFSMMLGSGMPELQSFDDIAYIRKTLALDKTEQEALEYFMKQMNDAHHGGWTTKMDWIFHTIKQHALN
Chain of PI3Kα (P27986 whole entry partner): as the sequence (P27986 whole entry partner) above

| pIC50 (PI3Kα; Table 2) | pIC50 [1] | pIC50 (PI3Kδ; Table 2) | pIC50 (PI3Kα; Table 4) | pIC50 (PI3Kδ; Table 1) | SMILES |
| --- | --- | --- | --- | --- | --- |
| 9.27 | 6.81 |  |  |  | C=CC(=O)N1CCN(c2ncnc3ccc(-c4cnc(OC)c(NS(=O)(=O)c5c(F)cc(F)cc5F)c4)cc23)CC1 [Example 100, N-(5-(4-(4-acryloylpiperazin-1-yl)quinazolin-6-yl)-2-methoxypyridin-3-yl)-2,4,6-trifluorobenzenesulfonamide] |
| 8.46 | 6.81 |  |  |  | CC(=O)/C=C/C(=O)N1CCN(c2ncnc3ccc(-c4cnc(OC5CC5)c(NS(=O)(=O)c5ccc(F)cc5F)c4)cc23)CC1 [Example 110, (E)-N-(2-cyclopropoxy-5-(4-(4-(4-oxopent-2-enoyl)piperazin-1-yl)quinazolin-6-yl)pyridin-3-yl)-2,4-difluorobenzenesulfonamide] |
| 8.72 | 7.33 |  |  |  | C=C(F)C(=O)N1CCN(c2ncnc3ccc(-c4cnc(OC)c(NS(=O)(=O)c5c(F)cccc5F)c4)cc23)C[C@@H]1CC#N [Example 115, (S)-N-(5-(4-(3-(cyanomethyl)-4-(2-fluoroacryloyl)piperazin-1-yl)quinazolin-6-yl)-2-methoxypyridin-3-yl)-2,6-difluorobenzenesulfonamide] |
| 8.82 | 7.43 |  |  |  | C=CC(=O)N1CCN(c2ncnc3ccc(-c4cnc(OC)c(NS(=O)(=O)c5c(F)cccc5F)c4)cc23)C[C@@H]1CC#N [Example 117, (S)-N-(5-(4-(4-acryloyl-3-(cyanomethyl)piperazin-1-yl)quinazolin-6-yl)-2-methoxypyridin-3-yl)-2,6-difluorobenzenesulfonamide] |
| 7.66 | 6.56 |  |  |  | COc1ncc(-c2ccc3ncnc(N4CCN(C(=O)/C=C/C(C)=O)CC4)c3c2)cc1NS(=O)(=O)Nc1ccc(F)cc1F [Example 128, N-(2,4-difluorophenyl)[(2-methoxy-5-(4-(4-[(2E)-4-oxopent-2-enoyl]piperazin-1-yl)quinazolin-6-yl)pyridin-3-yl)amino]sulfonamide] |
|  |  | 6.85 |  |  | CC(=O)/C=C/C(=O)N1CCN(c2ncnc3ccc(-c4cnc(O)c(NS(=O)(=O)c5ccc(F)cc5F)c4)cc23)CC1 [Example 129, (E)-2,4-difluoro-N-(2-hydroxy-5-(4-(4-(4-oxopent-2-enoyl)piperazin-1-yl)quinazolin-6-yl)pyridin-3-yl)benzenesulfonamide] |
|  | 8.14 |  | 9.37 |  | C=C(F)C(=O)N1CC2(CCN(c3ncnc4ccc(-c5cnc(OC)c(NS(=O)(=O)c6c(F)cc(F)cc6F)c5)cc34)CC2)C1 [Example 140, 2,4,6-trifluoro-N-(5-(4-(2-(2-fluoroacryloyl)-2,7-diazaspiro[3.5]nonan-7-yl)quinazoline-6-yl)-2-methoxypyridin-3-yl)benzenesulfonamide] |
|  | 7.09 |  | 9.52 |  | COc1ncc(-c2ccc3ncnc(N4CC5(CN(C(=O)/C=C/C(C)=O)C5)C4)c3c2)cc1NS(=O)(=O)c1ccc(F)cc1F [Example 141] |
|  | 6.10 |  | 8.80 |  | C=CC(=O)N1CCC(Nc2ncnc3ccc(-c4cnc(OC)c(NS(=O)(=O)c5ccc(F)cc5F)c4)cc23)C1 (centres unmarked) [Example 147, N-(5-(4-((1-acryloylpyrrolidin-3-yl)amino)quinazolin-6-yl)-2-methoxypyridin-3-yl)-2,4-difluorobenzenesulfonamide] |
|  | 6.20 |  | 8.04 |  | COc1ncc(-c2ccc3ncnc(NC4CCN(C(=O)/C=C/C(C)=O)C4)c3c2)cc1NS(=O)(=O)c1ccc(F)cc1F (centres unmarked) [Example 148, (E)-2,4-difluoro-N-(2-methoxy-5-(4-((1-(4-oxopent-2-enoyl)pyrrolidin-3-yl)amino)quinazolin-6-yl)pyridin-3-yl)benzenesulfonamide] |
|  | 6.89 |  | 8.89 |  | COc1ncc(-c2ccc3ncnc(N4CC5CN(C(=O)/C=C/C(C)=O)CC5C4)c3c2)cc1NS(=O)(=O)c1ccc(F)cc1F (centres unmarked) [Example 157, (E)-2,4-difluoro-N-(2-methoxy-5-(4-(5-(4-oxopent-2-enoyl)hexahydropyrrolo[3,4-c]pyrrol-2(1H)-yl)quinazolin-6-yl)pyridin-3-yl)benzenesulfonamide] |
|  | 6.72 |  | 9.60 |  | COc1ncc(-c2ccc3ncnc(N4CCC5(CC4)CN(C(=O)/C=C/C(C)=O)C5)c3c2)cc1NS(=O)(=O)c1c(F)cncc1F [Example 163, (E)-3,5-difluoro-N-(2-methoxy-5-(4-(2-(4-oxopent-2-enoyl)-2,7-diazaspiro[3.5]nonan-7-yl)quinazolin-6-yl)pyridin-3-yl)pyridine-4-sulfonamide] |
|  | 6.81 |  | 8.55 |  | COc1ncc(-c2ccc3ncnc(N4CCN(C(=O)/C=C/C(C)=O)C[C@@H]4C)c3c2)cc1NS(=O)(=O)c1c(F)cncc1F [Example 164, (S,E)-3,5-difluoro-N-(2-methoxy-5-(4-(2-methyl-4-(4-oxopent-2-enoyl)piperazin-1-yl)quinazolin-6-yl)pyridin-3-yl)pyridine-4-sulfonamide] |
|  |  |  |  | 7.74 | COc1ncc(-c2nc(N3CCOCC3)nc3c(CN4CCC(C(C)(C)O)CC4)cc(F)cc23)cc1NS(C)(=O)=O [Linperlisib, reference compound] |

| SMILES | pIC50 (PI3Kα; Table 2) | pIC50 [1] | pIC50 (PI3Kδ; Table 2) | pIC50 (PI3Kα; Table 4) | pIC50 (PI3Kδ; Table 1) |
| --- | --- | --- | --- | --- | --- |
| COc1ncc(-c2ccc3ncnc(N4CC5CC(C4)N5C(=O)/C=C/C(C)=O)c3c2)cc1NS(=O)(=O)c1ccc(F)cc1F [Example 142, (E)-2,4-difluoro-N-(2-methoxy-5-(4-(6-(4-oxopent-2-enoyl)-3,6-diazabicyclo[3.1.1]heptan-3-yl)quinazolin-6-yl)pyridin-3-yl)benzenesulfonamide] |  | 6.45 |  | 9.24 |  |
| C=C(F)C(=O)N1C2CCC1CN(c1ncnc3ccc(-c4cnc(OC)c(NS(=O)(=O)c5ccc(F)cc5F)c4)cc13)C2 [Example 146, 2,4-difluoro-N-(5-(4-(8-(2-fluoroacryloyl)-3,8-diazabicyclo[3.2.1]octan-3-yl)quinazolin-6-yl)-2-methoxypyridin-3-yl)benzenesulfonamide] |  | 7.09 |  | 8.68 |  |
| COc1ncc(-c2ccc3ncnc(N4CC5CCC(C4)N5C(=O)/C=C/C(C)=O)c3c2)cc1NS(=O)(=O)c1ccc(F)cc1 [Example 149, 4-fluoro-N-(2-methoxy-5-(4-(8-((E)-4-oxopent-2-enoyl)-3,8-diazabicyclo[3.2.1]octan-3-yl)quinazolin-6-yl)pyridin-3-yl)benzenesulfonamide] |  | 7.04 |  | 8.48 |  |
| COc1ncc(-c2ccc3ncnc(N4CC5CCC(C4)N5C(=O)/C=C/C(C)=O)c3c2)cc1NS(=O)(=O)c1ccccc1F [Example 151, 2-fluoro-N-(2-methoxy-5-(4-(8-((E)-4-oxopent-2-enoyl)-3,8-diazabicyclo[3.2.1]octan-3-yl)quinazolin-6-yl)pyridin-3-yl)benzenesulfonamide] |  | 7.10 |  | 8.23 |  |
| C=C(F)C(=O)N1C2CCC1CN(c1ncnc3ccc(-c4cnc(OC)c(NS(=O)(=O)c5c(F)cc(F)cc5F)c4)cc13)C2 [Example 156, 2,4,6-trifluoro-N-(5-(4-(8-(2-fluoroacryloyl)-3,8-diazabicyclo[3.2.1]octan-3-yl)quinazolin-6-yl)-2-methoxypyridin-3-yl)benzenesulfonamide] |  | 7.53 |  | 9.30 |  |
| COc1ncc(-c2ccc3ncnc(N4CC5CCC(C4)N5C(=O)/C=C/C(C)=O)c3c2)cc1NS(=O)(=O)c1c(F)cncc1F [Example 162, 3,5-difluoro-N-(2-methoxy-5-(4-(8-((E)-4-oxopent-2-enoyl)-3,8-diazabicyclo[3.2.1]octan-3-yl)quinazolin-6-yl)pyridin-3-yl)pyridine-4-sulfonamide] |  | 6.85 |  | 8.62 |  |
